Reference: ChEMBL document CHEMBL3351888, “Synthesis and Pharmacological Evaluation of DHβE Analogues as Neuronal Nicotinic Acetylcholine Receptor Antagonists” (ACS Med Chem Lett, 2014)

Tests used:
[1] = biological target: Nicotinic acetylcholine receptor alpha-4/beta-2 (Mus musculus, UniProt Q8R493+Q9ERK7); assay: Antagonist activity at mouse alpha4beta2 nAChR transfected in HEK293 cells by FLIPR membrane potential blue (FMP) assay; assay type: cell-based
[2] = biological target: T1, Neuronal acetylcholine receptor; alpha3/beta4 (Rattus norvegicus, UniProt P04757+P12392); assay: Displacement of [3H]epibatidine from rat alpha3beta4 nAChR transfected in HEK293 cells after 4 hrs by scintillation count analysis; assay type: cell-based
T1 sequence (P04757 whole entry): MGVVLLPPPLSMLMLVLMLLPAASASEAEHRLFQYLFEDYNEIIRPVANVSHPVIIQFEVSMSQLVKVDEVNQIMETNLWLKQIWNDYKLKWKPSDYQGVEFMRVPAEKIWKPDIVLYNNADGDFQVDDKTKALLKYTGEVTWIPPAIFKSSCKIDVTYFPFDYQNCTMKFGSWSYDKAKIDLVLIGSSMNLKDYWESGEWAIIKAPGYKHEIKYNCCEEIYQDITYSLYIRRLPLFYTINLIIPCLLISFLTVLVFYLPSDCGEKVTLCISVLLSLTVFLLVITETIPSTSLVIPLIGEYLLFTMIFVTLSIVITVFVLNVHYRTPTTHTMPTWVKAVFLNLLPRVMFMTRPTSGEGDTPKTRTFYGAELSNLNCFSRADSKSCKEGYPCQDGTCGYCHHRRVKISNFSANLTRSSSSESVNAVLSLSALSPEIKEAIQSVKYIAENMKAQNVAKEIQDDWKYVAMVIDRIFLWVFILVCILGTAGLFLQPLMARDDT
T1 sequence (P12392 whole entry): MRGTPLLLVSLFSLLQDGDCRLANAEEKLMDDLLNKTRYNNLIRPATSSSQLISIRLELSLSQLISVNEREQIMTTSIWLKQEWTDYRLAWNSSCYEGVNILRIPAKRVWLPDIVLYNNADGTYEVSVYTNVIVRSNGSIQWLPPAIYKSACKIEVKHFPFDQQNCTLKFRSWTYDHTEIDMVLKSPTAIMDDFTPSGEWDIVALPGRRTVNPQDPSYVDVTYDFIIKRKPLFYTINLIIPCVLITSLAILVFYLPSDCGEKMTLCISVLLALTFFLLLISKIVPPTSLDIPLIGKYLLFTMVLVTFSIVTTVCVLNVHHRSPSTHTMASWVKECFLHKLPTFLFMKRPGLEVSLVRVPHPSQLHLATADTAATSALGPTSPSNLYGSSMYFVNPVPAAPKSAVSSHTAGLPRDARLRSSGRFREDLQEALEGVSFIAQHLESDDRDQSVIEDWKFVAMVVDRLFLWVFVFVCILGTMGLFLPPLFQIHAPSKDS

[3] = biological target: T2, Neuronal acetylcholine receptor; alpha4/beta2 (Rattus norvegicus, UniProt P09483+P12390); assay: Inhibition of rat membrane alpha4beta2 nAChR by [3H]cytisine binding assay
T2 sequence (P09483 whole entry): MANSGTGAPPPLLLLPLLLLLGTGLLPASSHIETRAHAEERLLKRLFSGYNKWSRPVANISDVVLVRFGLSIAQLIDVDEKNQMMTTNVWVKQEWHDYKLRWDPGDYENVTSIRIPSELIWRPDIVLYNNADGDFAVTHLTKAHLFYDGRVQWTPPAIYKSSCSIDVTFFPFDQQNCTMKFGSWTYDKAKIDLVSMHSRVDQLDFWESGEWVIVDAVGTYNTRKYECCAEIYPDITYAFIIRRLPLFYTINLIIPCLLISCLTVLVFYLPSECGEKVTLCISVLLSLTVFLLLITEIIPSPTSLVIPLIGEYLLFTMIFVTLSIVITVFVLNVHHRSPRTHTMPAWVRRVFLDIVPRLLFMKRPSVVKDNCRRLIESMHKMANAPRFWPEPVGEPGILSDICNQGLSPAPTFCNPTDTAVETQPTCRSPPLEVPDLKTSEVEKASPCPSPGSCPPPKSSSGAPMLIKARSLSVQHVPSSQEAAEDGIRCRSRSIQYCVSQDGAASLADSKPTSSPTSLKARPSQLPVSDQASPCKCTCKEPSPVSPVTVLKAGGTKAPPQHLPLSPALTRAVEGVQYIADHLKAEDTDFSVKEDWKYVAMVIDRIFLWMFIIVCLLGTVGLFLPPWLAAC
T2 sequence (P12390 whole entry): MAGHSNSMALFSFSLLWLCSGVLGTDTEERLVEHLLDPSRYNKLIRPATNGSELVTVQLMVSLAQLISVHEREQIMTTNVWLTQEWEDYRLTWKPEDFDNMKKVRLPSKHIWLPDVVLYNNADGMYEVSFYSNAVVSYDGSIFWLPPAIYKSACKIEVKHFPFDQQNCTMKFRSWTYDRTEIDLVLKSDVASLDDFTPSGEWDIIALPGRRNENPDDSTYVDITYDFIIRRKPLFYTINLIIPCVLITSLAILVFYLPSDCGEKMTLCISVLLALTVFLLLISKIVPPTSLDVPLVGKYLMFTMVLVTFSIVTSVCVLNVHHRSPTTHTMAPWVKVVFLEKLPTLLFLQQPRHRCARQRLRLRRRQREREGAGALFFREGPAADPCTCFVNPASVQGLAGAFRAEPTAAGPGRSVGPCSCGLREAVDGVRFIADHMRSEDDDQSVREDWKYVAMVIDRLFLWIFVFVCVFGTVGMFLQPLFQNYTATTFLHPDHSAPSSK

[4] = biological target: T2, Neuronal acetylcholine receptor; alpha4/beta2; assay: Displacement of [3H]epibatidine from rat alpha4beta2 nAChR transfected in HEK293 cells after 4 hrs by scintillation count analysis; assay type: cell-based
[5] = biological target: Neuronal acetylcholine receptor; alpha4/beta4 (Rattus norvegicus, UniProt P09483+P12392); assay: Displacement of [3H]epibatidine from rat alpha4beta4 nAChR transfected in HEK293 cells after 4 hrs by scintillation count analysis; assay type: cell-based
Sequence of Neuronal acetylcholine receptor; alpha4/beta4 (P09483 whole entry): as the sequence (P09483 whole entry) above
Sequence of Neuronal acetylcholine receptor; alpha4/beta4 (P12392 whole entry): as the sequence (P12392 whole entry) above

[6] = biological target: T1, Neuronal acetylcholine receptor; alpha3/beta4; assay: Antagonist activity at rat alpha3beta4 nAChR transfected in HEK293 cells by FLIPR membrane potential blue (FMP) assay; assay type: cell-based

Sequence of Nicotinic acetylcholine receptor alpha-4/beta-2 (Q9ERK7 whole entry): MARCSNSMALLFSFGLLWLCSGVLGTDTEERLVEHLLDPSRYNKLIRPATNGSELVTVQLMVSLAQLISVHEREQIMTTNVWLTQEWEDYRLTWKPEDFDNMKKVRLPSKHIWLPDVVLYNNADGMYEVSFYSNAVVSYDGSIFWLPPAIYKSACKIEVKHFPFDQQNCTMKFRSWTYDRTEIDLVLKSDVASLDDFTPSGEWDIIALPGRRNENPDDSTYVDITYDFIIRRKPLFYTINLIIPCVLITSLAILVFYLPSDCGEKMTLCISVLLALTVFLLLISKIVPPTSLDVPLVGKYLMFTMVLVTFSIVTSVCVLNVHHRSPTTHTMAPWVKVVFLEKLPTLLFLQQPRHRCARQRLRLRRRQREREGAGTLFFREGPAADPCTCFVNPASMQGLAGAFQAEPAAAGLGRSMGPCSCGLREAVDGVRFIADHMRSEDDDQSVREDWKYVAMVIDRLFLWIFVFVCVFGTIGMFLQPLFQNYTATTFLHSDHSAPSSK
Sequence of Nicotinic acetylcholine receptor alpha-4/beta-2 (Q8R493 whole entry): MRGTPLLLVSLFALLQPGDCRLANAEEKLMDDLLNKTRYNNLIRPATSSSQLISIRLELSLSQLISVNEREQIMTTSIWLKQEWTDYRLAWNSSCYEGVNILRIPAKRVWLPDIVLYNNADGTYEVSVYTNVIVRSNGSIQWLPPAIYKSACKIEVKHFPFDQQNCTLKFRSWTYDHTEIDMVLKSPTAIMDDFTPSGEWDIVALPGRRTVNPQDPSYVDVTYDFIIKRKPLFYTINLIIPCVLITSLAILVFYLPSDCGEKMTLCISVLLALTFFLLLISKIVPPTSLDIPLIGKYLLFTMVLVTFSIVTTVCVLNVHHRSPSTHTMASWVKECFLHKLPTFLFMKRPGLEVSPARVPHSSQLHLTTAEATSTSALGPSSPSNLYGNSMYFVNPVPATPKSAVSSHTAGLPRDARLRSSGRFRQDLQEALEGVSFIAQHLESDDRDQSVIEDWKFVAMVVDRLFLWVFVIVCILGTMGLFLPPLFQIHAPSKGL

Compound	IC50 [1]	Ki [2]	Ki [3]	Ki [4]	Ki [5]	IC50 [6]
CO[C@H]1CC=C2CCN3CCC4=C(CC(=O)OC4)[C@]23C1	1.2 µM	100 µM	140 nM	0.82 µM	100 µM	
CO[C@H]1CC[C@H]2CCN3CCC4=C(CC(=O)OC4)[C@]23C1			7400 nM			
CO[C@H]1C=CC2=CCN3CCC4=C(CC(=O)OC4)[C@]23C1			1100 nM			
CO[C@H]1CC[C@H]2CCN(C)[C@H]2C1 (racemic)	> 300 µM	> 300 µM		300 µM	> 300 µM	> 300 µM
CO[C@H]1CC=C2CCN(C)[C@H]2C1 (racemic)	30 µM	100 µM		3.4 µM	100 µM	> 300 µM
CO[C@H]1C=CC2=CCN(C)[C@H]2C1 (racemic)	100 µM	> 300 µM		30 µM	> 300 µM	> 300 µM
CN1CC[C@@H]2CC[C@H](O)C[C@@H]21 (racemic)	> 300 µM	> 300 µM		> 300 µM	> 300 µM	> 300 µM
CCO[C@H]1CC[C@H]2CCN(C)[C@H]2C1 (racemic)	> 300 µM	300 µM		300 µM	> 300 µM	> 300 µM
CN1CC[C@@H]2CC[C@H](OCc3ccccc3)C[C@@H]21 (racemic)	> 300 µM	100 µM		100 µM	300 µM	> 300 µM
COCCO[C@H]1CC[C@H]2CCN(C)[C@H]2C1 (racemic)	> 300 µM	300 µM		300 µM	> 300 µM	> 300 µM
O[C@H]1CC[C@H]2CCN[C@H]2C1 (racemic)	> 100 µM	> 300 µM		> 300 µM	> 300 µM	> 300 µM
CN1CCC2=CC[C@H](O)C[C@@H]21 (racemic)	> 100 µM	> 300 µM		300 µM	> 300 µM	> 300 µM
CCO[C@H]1CC=C2CCN(C)[C@H]2C1 (racemic)	> 300 µM	> 300 µM		300 µM	> 300 µM	> 300 µM
CN1CCC2=CC[C@H](OCc3ccccc3)C[C@@H]21 (racemic)	> 300 µM	300 µM		300 µM	300 µM	> 300 µM
COCCO[C@H]1CC=C2CCN(C)[C@H]2C1 (racemic)	> 300 µM	> 300 µM		> 300 µM	> 300 µM	> 300 µM
O[C@H]1CC=C2CCN[C@H]2C1 (racemic)	> 300 µM	> 300 µM		> 300 µM	> 300 µM	> 300 µM
CO[C@H]1CC=C2CCN[C@H]2C1 (racemic)	100 µM	> 300 µM		300 µM	> 300 µM	> 300 µM
